Experimental findings from PubChem BioAssay (NCI) are described below.

Test systems include EKVX NSCLC; HCC-2998 colon; CAKI-1 renal; M14 melanoma; MDA-MB-435; SK-MEL-2 melanoma; MDA-MB-231 breast; SNB-19 CNS; RPMI-8226 leukemia; T-47D breast.
Common to all, as to experiment: DTP human tumour cell line panel, 48 h

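Growth conditions: 96-well plates. Treatment: test compound, 48 hours, 5 concentrations. Analysis: linear interpolation between bracketing concentrations; unreached endpoints set to highest concentration. GI50 = concentration required for 50% inhibition of growth. TGI is the concentration that stops growth completely.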

The term TGI denotes the concentration at which net growth stops. Low values mean greater sensitivity of the cells, high ones lower sensitivity of the cells. As usually defined, the GI50 is the concentration at which growth is held to half of that of the control.

For `O=CN1CCN(c2ccc3ccc(=O)[nH]c3n2)CC1`, the TGI in the experiment on EKVX NSCLC, in the experiment on HCC-2998 colon, in the experiment on CAKI-1 renal, in the experiment on M14 melanoma, with MDA-MB-435 and in the experiment with SK-MEL-2 melanoma was more than 100 µM each time. Besides, the TGI with MDA-MB-231 breast, in the experiment on SNB-19 CNS and with RPMI-8226 leukemia was more than 100 µM each time.

Turning to `C[N+]1(C)CCCC(C#N)(c2ccccc2)CC1` (stereo not drawn), the TGI in the experiment with EKVX NSCLC, in the experiment on HCC-2998 colon, in the experiment with CAKI-1 renal, with M14 melanoma, in the experiment with T-47D breast and with SNB-19 CNS was more than 100 µM in each case. In the experiment with RPMI-8226 leukemia, this compound displayed a TGI of more than 100 µM.

As to `CCOP1(=O)CC(C)=C(Cl)C(OC)C1` (stereo not drawn), the TGI in the experiment with EKVX NSCLC, in the experiment on HCC-2998 colon, with CAKI-1 renal, in the experiment on M14 melanoma, with MDA-MB-435 and in the experiment on SK-MEL-2 melanoma was more than 100 µM in each case. Further, the TGI in the experiment on MDA-MB-231 breast, in the experiment with SNB-19 CNS and in the experiment with RPMI-8226 leukemia was more than 100 µM each time.

Regarding `Nc1nc(Cl)c(CO)c(NCC2(CO)CCC2)n1`, the total growth inhibition concentration (TGI) in the experiment with EKVX NSCLC, in the experiment on HCC-2998 colon, in the experiment on CAKI-1 renal, with MDA-MB-435, with MDA-MB-231 breast and with SNB-19 CNS was more than 100 µM throughout. In the experiment on RPMI-8226 leukemia, this compound registered a TGI of more than 100 µM.

Regarding `C[C@]12CC[C@H]3[C@@H](CC=C4C[C@@H](O)CC[C@@]43C)[C@@H]1C/C(=C\c1cccnc1)[C@@H]2O`, the TGI with EKVX NSCLC is 35.8 µM; with M14 melanoma, more than 100 µM; with MDA-MB-435, more than 100 µM; with SK-MEL-2 melanoma, more than 100 µM; in the experiment with MDA-MB-231 breast, 57.8 µM; with SNB-19 CNS, 61.5 µM. This compound also yielded a concentration for total growth inhibition (TGI) in the experiment with RPMI-8226 leukemia of more than 100 µM.

Turning to `CCOC(=O)C(O)(CC1=NC(C(=O)OC)(C(=O)OC)C(c2cccc(C=O)c2)O1)C(=O)OCC` (stereo not drawn), the TGI in the experiment on EKVX NSCLC, in the experiment with HCC-2998 colon, in the experiment with CAKI-1 renal, in the experiment with M14 melanoma, with MDA-MB-435 and in the experiment with SK-MEL-2 melanoma was more than 100 µM each time. The TGI in the experiment on T-47D breast, in the experiment on SNB-19 CNS and in the experiment with RPMI-8226 leukemia was more than 100 µM throughout.

Turning to `Cc1ccc(S(=O)(=O)OC[C@@]2(C)CC[C@]3(C)CC[C@]4(C)C(=C3C2)C=C[C@@H]2[C@@]3(C)CCCNC(C)(C)[C@@H]3CC[C@]24C)cc1`, the GI50 in the experiment with EKVX NSCLC was 1700 nM; with CAKI-1 renal it was 1610 nM; in the experiment on MDA-MB-435, 1640 nM; with SK-MEL-2 melanoma it was 1880 nM; in the experiment with T-47D breast, 1550 nM; in the experiment on RPMI-8226 leukemia, 2120 nM. For the same compound, the TGI in the experiment on EKVX NSCLC was found to be 3.29 µM; in the experiment on CAKI-1 renal, 3.06 µM; in the experiment with MDA-MB-435, 3.07 µM; in the experiment with SK-MEL-2 melanoma, 3.52 µM; with T-47D breast, 3.26 µM; in the experiment with RPMI-8226 leukemia, 4.63 µM.

Turning to `C=CCOCC1C2CCC3(OCCO3)C21` (stereo not drawn), the TGI with EKVX NSCLC was more than 100 µM; in the experiment with HCC-2998 colon, more than 100 µM; with CAKI-1 renal it was 87.5 µM; in the experiment on M14 melanoma, more than 100 µM; in the experiment with MDA-MB-435, more than 100 µM; in the experiment with SK-MEL-2 melanoma, more than 100 µM. In addition, the TGI with MDA-MB-231 breast, with SNB-19 CNS and with RPMI-8226 leukemia was more than 100 µM each time.

As to `ClC1=NSSC1(Cl)Cl`, the TGI with EKVX NSCLC was more than 100 µM; in the experiment with HCC-2998 colon, more than 100 µM; in the experiment on CAKI-1 renal, 34.8 µM; with M14 melanoma, 40.1 µM; in the experiment on MDA-MB-435, more than 100 µM; in the experiment with SK-MEL-2 melanoma, more than 100 µM. Also, the concentration for total growth inhibition (TGI) in the experiment on MDA-MB-231 breast is 71.2 µM; in the experiment on SNB-19 CNS, more than 100 µM; in the experiment on RPMI-8226 leukemia, 56 µM.

`CC(=O)Oc1ccc2cc(Oc3cc(Cl)c(Cl)cc3Cl)c(=O)oc2c1`: the TGI in the experiment with EKVX NSCLC is 71.9 µM; in the experiment with HCC-2998 colon, 30.8 µM; in the experiment on CAKI-1 renal it was 33.6 µM; with M14 melanoma it was 35.2 µM; in the experiment on T-47D breast it was more than 100 µM; in the experiment on MDA-MB-231 breast it was 33.7 µM. The TGI in the experiment with SNB-19 CNS is 81.2 µM.

Turning to `[CH3][Sn]([CH3])([CH3])[S]C(=S)N1CCOCC1`, the GI50 in the experiment on EKVX NSCLC was 4960 nM; with HCC-2998 colon it was 3410 nM; with CAKI-1 renal it was 4000 nM; in the experiment on SK-MEL-2 melanoma it was 1510 nM; with RPMI-8226 leukemia, 362 nM. Also, the TGI was more than 100 µM in the experiment on EKVX NSCLC; 15.7 µM with HCC-2998 colon; more than 46.4 µM in the experiment on CAKI-1 renal; 4.75 µM in the experiment on SK-MEL-2 melanoma; 2.22 µM in the experiment with RPMI-8226 leukemia.

On to `CCN(CC)c1c(C(C)(C)C)c(=O)n2ccsc2c1OC(C)=O`, for which the TGI with EKVX NSCLC is 29.3 µM; in the experiment on HCC-2998 colon, 32.2 µM; in the experiment with CAKI-1 renal it was 33.1 µM; with M14 melanoma it was 31.2 µM; in the experiment on MDA-MB-435, 32.5 µM; with SK-MEL-2 melanoma, 31 µM. The values for the concentration for total growth inhibition (TGI) with MDA-MB-231 breast, in the experiment on SNB-19 CNS and with RPMI-8226 leukemia were 32.5 µM, 30.4 µM and more than 100 µM, respectively.

For `c1ccc(C(Oc2noc3ccccc23)c2ccccc2)cc1`, the TGI is more than 100 µM in the experiment with EKVX NSCLC; 44.7 µM in the experiment with HCC-2998 colon; more than 100 µM in the experiment with CAKI-1 renal; 63.5 µM in the experiment with M14 melanoma; 75.4 µM in the experiment with MDA-MB-435; 23.1 µM in the experiment with T-47D breast. Besides, the TGI with MDA-MB-231 breast and in the experiment with SNB-19 CNS was more than 100 µM in each case.

As to `COCN1C(=O)[C@@H]2CCCN2C(=O)c2ccc(N)cc21`, the TGI in the experiment with EKVX NSCLC, in the experiment on HCC-2998 colon, in the experiment with CAKI-1 renal, in the experiment on M14 melanoma, with MDA-MB-435 and in the experiment with SK-MEL-2 melanoma was more than 100 µM each time. Besides, the TGI with MDA-MB-231 breast, in the experiment on SNB-19 CNS and in the experiment with RPMI-8226 leukemia was more than 100 µM each time.

With `COC1OC2COC(=O)c3cc(O)c(O)c(O)c3-c3c(cc(O)c(O)c3O)C(=O)OC2C(O)C1O` (stereo not drawn), the TGI in the experiment with EKVX NSCLC was more than 100 µM; with CAKI-1 renal it was more than 100 µM; in the experiment on M14 melanoma, more than 100 µM; in the experiment with MDA-MB-435, 94.8 µM; in the experiment with SK-MEL-2 melanoma it was more than 100 µM; with MDA-MB-231 breast it was more than 100 µM. The total growth inhibition concentration (TGI) in the experiment on SNB-19 CNS and in the experiment on RPMI-8226 leukemia was more than 100 µM throughout.

As for `Cc1c(C#N)c2nnn(-c3cccc(Cl)c3)c(=O)n2c1-c1ccccc1`, the TGI is more than 100 µM with EKVX NSCLC; 18.2 µM with HCC-2998 colon; more than 100 µM with CAKI-1 renal; more than 100 µM with M14 melanoma; 8.95 µM in the experiment on SK-MEL-2 melanoma; 53.9 µM with T-47D breast. The TGI in the experiment with MDA-MB-231 breast was 6.1 µM; in the experiment on SNB-19 CNS, more than 100 µM; in the experiment with RPMI-8226 leukemia, 2.61 µM.

In the case of `CNC(=S)N/N=C/C(C)=N/NC(=S)NC`, the TGI in the experiment on EKVX NSCLC, in the experiment with HCC-2998 colon, in the experiment on M14 melanoma, with SK-MEL-2 melanoma, with SNB-19 CNS and with RPMI-8226 leukemia was more than 100 µM in each case.

For the compound `C/C(=C\C(=O)Nc1ccc2n[nH]nc2c1)Nc1ccc2n[nH]nc2c1`, the TGI in the experiment with EKVX NSCLC, with HCC-2998 colon, in the experiment with CAKI-1 renal, with M14 melanoma, in the experiment with SNB-19 CNS and with RPMI-8226 leukemia was more than 100 µM each time.

Take `CNC(=O)OCc1cnc([N+](=O)[O-])n1C`: the TGI in the experiment with EKVX NSCLC, with HCC-2998 colon, with CAKI-1 renal, in the experiment with MDA-MB-435, in the experiment with SK-MEL-2 melanoma and with MDA-MB-231 breast was more than 100 µM each time. Moreover, the TGI with RPMI-8226 leukemia was more than 100 µM.

Take `CCCCCCCCCCCC1N=C(N)N=C(N)N1c1cccc(Br)c1` (stereo not drawn): the GI50 is 1050 nM with EKVX NSCLC; 1160 nM in the experiment on HCC-2998 colon; 1800 nM with CAKI-1 renal; 523 nM in the experiment with MDA-MB-435; 1550 nM with SK-MEL-2 melanoma; 1680 nM in the experiment with RPMI-8226 leukemia. The TGI came to 2.44 µM in the experiment on EKVX NSCLC; 2.42 µM with HCC-2998 colon; 4.12 µM in the experiment on CAKI-1 renal; 1.79 µM in the experiment on MDA-MB-435; 2.99 µM in the experiment with SK-MEL-2 melanoma; 4.21 µM in the experiment on RPMI-8226 leukemia.

In the case of `S=C(NCc1ccccn1)N/N=C/c1ccccn1`, the TGI was 2.44 µM in the experiment on EKVX NSCLC; more than 100 µM with HCC-2998 colon; 4.33 µM in the experiment with CAKI-1 renal; more than 100 µM with M14 melanoma; more than 100 µM with MDA-MB-435; 0.876 µM in the experiment on SK-MEL-2 melanoma. For the same compound, the figures for the TGI in the experiment on T-47D breast, with SNB-19 CNS and with RPMI-8226 leukemia were more than 61.5 µM, 28.6 µM and less than 0.01 µM, respectively.

Turning to `CC(=O)N[C@@H](Cc1ccc(O)cn1)C(=O)NCc1ccc(Cl)cc1`, the TGI with EKVX NSCLC, with HCC-2998 colon, in the experiment with CAKI-1 renal, in the experiment with M14 melanoma, with MDA-MB-435 and in the experiment on SK-MEL-2 melanoma was more than 100 µM throughout. The TGI with T-47D breast, in the experiment with SNB-19 CNS and in the experiment on RPMI-8226 leukemia was more than 100 µM throughout.

In the case of `Nc1nc(SCc2ccccc2Cl)c2ncn(C3OC(CO)C(O)C3O)c2n1` (stereo not drawn), the TGI in the experiment with HCC-2998 colon, with CAKI-1 renal, with M14 melanoma, in the experiment on SK-MEL-2 melanoma, in the experiment with SNB-19 CNS and in the experiment on RPMI-8226 leukemia was more than 100 µM throughout.
